Earlier results in publication PMC6329039 (Molecular Pain, 2019).

Test system: STAT3
Settings: thermal shift assays ref 33

## CN(CC(=O)N(Cc1ccc(C2CCCCC2)cc1)c1ccc(C(=O)O)c(O)c1)S(=O)(=O)c1c(F)c(F)c(F)c(F)c1F [BP-1–102]
  binding to and degradation of STAT3: specifically bind to and induce the degradation of STAT3
